Assay results reported in patent publication US20110105397A1, “METHOD FOR TREATING HEART FAILURE WITH STRESSCOPIN-LIKE PEPTIDES” (priority 2009, published 2011).

Tested on: subjects with heart failure
Assay: Human hemodynamics (impedance cardiography), subjects with stable heart failure, 7.5-hour ascending dose IV infusion
Assay type: in vivo
Details: for Heart Rate CFB / Heart Rate Percent CFB: placebo-subtracted; for Cardiac Index CFB / Cardiac Index Percent CFB / Cardiac Output CFB / Cardiac Output Percent CFB / Diastolic Blood Pressure CFB / Diastolic Blood Pressure Percent CFB / Stroke Volume CFB / Stroke Volume Percent CFB / Systolic Blood Pressure CFB / Systolic Blood Pressure Percent CFB: post hoc analysis
Description: Efficacy was based on the pharmacodynamic evaluation of hemodynamics, which was monitored using the noninvasive technique of impedance cardiography. Heart rate values were collected by impedance cardiography measurements. It was noted that the heart rate of subjects receiving placebo were elevated on the day of their infusions, at baseline before the infusion, and for the first 3 to 4 hours after the infusions were started (FIG. 17). Based on this observation, it appeared that there was a potential effect of period on the observed heart rate.
A post hoc graphical analysis of the hemodynamic data was done to adjust for the elevated baseline values seen just before onset of the infusion, to obtain the best estimate of each hemodynamic parameter, and to correct for the effect of period. A post hoc graphic presentation was prepared from the complete (high frequency) dataset. This dataset contains the raw data that were further processed by the vendor (ie, CardioDynamics) and reported only at specific time points.
In this post hoc analysis an extended baseline was used for each value that included all values recorded before initiation of the infusion. Then an average value for each parameter was obtained from the last 30 minutes of each 2.5 hour infusion and was used as the effect in that period of the infused dose. Each value was modified for the effect of period of infusion by subtracting the mean change from baseline seen in placebo subjects dosed in that same period (placebo subtraction). The dose effect was estimated by averaging the values from all subjects who received the same dose after the placebo subtraction.
As may have occurred in healthy subjects, subjects with stable heart failure may have experienced anxiety before the start of the infusion that contributed to this increase in baseline heart rate values.

H-TKFTLSLDVPTNIMNLLFNIAKAKNLRAQAAANAHLMAQI-NH2 [SEQ ID NO: 1, TKFTLSLDVPTNIMNLLFNIAKAKNLRAQAAANAHLMAQI-NH2]
increase in heart rate (highest dose of 54 ng/kg/min): ~10 bpm | Heart Rate CFB (infusion rate 0.3 ng/kg/min): 1.5 bpm | Heart Rate Percent CFB (infusion rate 0.3 ng/kg/min): 3.0% | Cardiac Index CFB (infusion rate 0.3 ng/kg/min): 0.3 L/min/m^2 | Cardiac Index Percent CFB (infusion rate 0.3 ng/kg/min): 13.9% | Cardiac Output CFB (infusion rate 0.3 ng/kg/min): 0.7 L/min | Cardiac Output Percent CFB (infusion rate 0.3 ng/kg/min): 14.2% | Diastolic Blood Pressure CFB (infusion rate 0.3 ng/kg/min): −8.6 mm Hg | Diastolic Blood Pressure Percent CFB (infusion rate 0.3 ng/kg/min): −12.6% | Stroke Volume CFB (infusion rate 0.3 ng/kg/min): 7.6 mL | Stroke Volume Percent CFB (infusion rate 0.3 ng/kg/min): 9.5% | Systolic Blood Pressure CFB (infusion rate 0.3 ng/kg/min): −18.2 mm Hg | Systolic Blood Pressure Percent CFB (infusion rate 0.3 ng/kg/min): −15.8% | Heart Rate CFB (infusion rate 1 ng/kg/min): −0.4 bpm | Heart Rate Percent CFB (infusion rate 1 ng/kg/min): 0.2% | Cardiac Index CFB (infusion rate 1 ng/kg/min): 0.2 L/min/m^2 | Cardiac Index Percent CFB (infusion rate 1 ng/kg/min): 10.1% | Cardiac Output CFB (infusion rate 1 ng/kg/min): 0.5 L/min | Cardiac Output Percent CFB (infusion rate 1 ng/kg/min): 10.2% | Diastolic Blood Pressure CFB (infusion rate 1 ng/kg/min): −6.1 mm Hg | Diastolic Blood Pressure Percent CFB (infusion rate 1 ng/kg/min): −9.1% | Stroke Volume CFB (infusion rate 1 ng/kg/min): 6.6 mL | Stroke Volume Percent CFB (infusion rate 1 ng/kg/min): 9.1% | Systolic Blood Pressure CFB (infusion rate 1 ng/kg/min): −4.9 mm Hg | Systolic Blood Pressure Percent CFB (infusion rate 1 ng/kg/min): −4.7% | Heart Rate CFB (infusion rate 3 ng/kg/min): −1.3 bpm | Heart Rate Percent CFB (infusion rate 3 ng/kg/min): −0.9% | Cardiac Index CFB (infusion rate 3 ng/kg/min): 0.1 L/min/m^2 | Cardiac Index Percent CFB (infusion rate 3 ng/kg/min): 6.9% | Cardiac Output CFB (infusion rate 3 ng/kg/min): 0.3 L/min | Cardiac Output Percent CFB (infusion rate 3 ng/kg/min): 7.0% | Diastolic Blood Pressure CFB (infusion rate 3 ng/kg/min): −8.6 mm Hg | Diastolic Blood Pressure Percent CFB (infusion rate 3 ng/kg/min): −13.0% | Stroke Volume CFB (infusion rate 3 ng/kg/min): 4.8 mL | Stroke Volume Percent CFB (infusion rate 3 ng/kg/min): 7.3% | Systolic Blood Pressure CFB (infusion rate 3 ng/kg/min): −9.5 mm Hg | Systolic Blood Pressure Percent CFB (infusion rate 3 ng/kg/min): −9.2% | Heart Rate CFB (infusion rate 9 ng/kg/min): 0.2 bpm | Heart Rate Percent CFB (infusion rate 9 ng/kg/min): 1.5% | Cardiac Index CFB (infusion rate 9 ng/kg/min): 0.2 L/min/m^2 | Cardiac Index Percent CFB (infusion rate 9 ng/kg/min): 9.1% | Cardiac Output CFB (infusion rate 9 ng/kg/min): 0.5 L/min | Cardiac Output Percent CFB (infusion rate 9 ng/kg/min): 9.2% | Diastolic Blood Pressure CFB (infusion rate 9 ng/kg/min): −8.6 mm Hg | Diastolic Blood Pressure Percent CFB (infusion rate 9 ng/kg/min): −11.9% | Stroke Volume CFB (infusion rate 9 ng/kg/min): 5.9 mL | Stroke Volume Percent CFB (infusion rate 9 ng/kg/min): 7.6% | Systolic Blood Pressure CFB (infusion rate 9 ng/kg/min): −10.6 mm Hg | Systolic Blood Pressure Percent CFB (infusion rate 9 ng/kg/min): −9.4% | Heart Rate CFB (infusion rate 18 ng/kg/min): 0.8 bpm | Heart Rate Percent CFB (infusion rate 18 ng/kg/min): 2.5% | Cardiac Index CFB (infusion rate 18 ng/kg/min): 0.4 L/min/m^2 | Cardiac Index Percent CFB (infusion rate 18 ng/kg/min): 14.5% | Cardiac Output CFB (infusion rate 18 ng/kg/min): 0.8 L/min | Cardiac Output Percent CFB (infusion rate 18 ng/kg/min): 15.5% | Diastolic Blood Pressure CFB (infusion rate 18 ng/kg/min): −7.6 mm Hg | Diastolic Blood Pressure Percent CFB (infusion rate 18 ng/kg/min): −11.4% | Stroke Volume CFB (infusion rate 18 ng/kg/min): 9.3 mL | Stroke Volume Percent CFB (infusion rate 18 ng/kg/min): 12.9% | Systolic Blood Pressure CFB (infusion rate 18 ng/kg/min): −8.8 mm Hg | Systolic Blood Pressure Percent CFB (infusion rate 18 ng/kg/min): −8.7% | Heart Rate CFB (infusion rate 36 ng/kg/min): 3.6 bpm | Heart Rate Percent CFB (infusion rate 36 ng/kg/min): 6.3% | Cardiac Index CFB (infusion rate 36 ng/kg/min): 0.3 L/min/m^2 | Cardiac Index Percent CFB (infusion rate 36 ng/kg/min): 12.4% | Cardiac Output CFB (infusion rate 36 ng/kg/min): 0.7 L/min | Cardiac Output Percent CFB (infusion rate 36 ng/kg/min): 12.4% | Diastolic Blood Pressure CFB (infusion rate 36 ng/kg/min): −12.5 mm Hg | Diastolic Blood Pressure Percent CFB (infusion rate 36 ng/kg/min): −18.5% | Stroke Volume CFB (infusion rate 36 ng/kg/min): 4.2 mL | Stroke Volume Percent CFB (infusion rate 36 ng/kg/min): 6.0% | Systolic Blood Pressure CFB (infusion rate 36 ng/kg/min): −16.4 mm Hg | Systolic Blood Pressure Percent CFB (infusion rate 36 ng/kg/min): −14.9% | Heart Rate CFB (infusion rate 45 ng/kg/min): 3.8 bpm | Heart Rate Percent CFB (infusion rate 45 ng/kg/min): 7.5% | Cardiac Index CFB (infusion rate 45 ng/kg/min): 0.3 L/min/m^2 | Cardiac Index Percent CFB (infusion rate 45 ng/kg/min): 12.6% | Cardiac Output CFB (infusion rate 45 ng/kg/min): 0.7 L/min | Cardiac Output Percent CFB (infusion rate 45 ng/kg/min): 13.3% | Diastolic Blood Pressure CFB (infusion rate 45 ng/kg/min): −12.6 mm Hg | Diastolic Blood Pressure Percent CFB (infusion rate 45 ng/kg/min): −19.0% | Stroke Volume CFB (infusion rate 45 ng/kg/min): 3.3 mL | Stroke Volume Percent CFB (infusion rate 45 ng/kg/min): 5.4% | Systolic Blood Pressure CFB (infusion rate 45 ng/kg/min): −12.0 mm Hg | Systolic Blood Pressure Percent CFB (infusion rate 45 ng/kg/min): −11.7% | Heart Rate CFB (infusion rate 54 ng/kg/min): 7.0 bpm | Heart Rate Percent CFB (infusion rate 54 ng/kg/min): 11.5% | Cardiac Index CFB (infusion rate 54 ng/kg/min): 0.2 L/min/m^2 | Cardiac Index Percent CFB (infusion rate 54 ng/kg/min): 7.5% | Cardiac Output CFB (infusion rate 54 ng/kg/min): 0.4 L/min | Cardiac Output Percent CFB (infusion rate 54 ng/kg/min): 11.5% | Diastolic Blood Pressure CFB (infusion rate 54 ng/kg/min): −14.4 mm Hg | Diastolic Blood Pressure Percent CFB (infusion rate 54 ng/kg/min): −23.9% | Stroke Volume CFB (infusion rate 54 ng/kg/min): -2.5 mL | Stroke Volume Percent CFB (infusion rate 54 ng/kg/min): 0.5% | Systolic Blood Pressure CFB (infusion rate 54 ng/kg/min): −18.8 mm Hg | Systolic Blood Pressure Percent CFB (infusion rate 54 ng/kg/min): −21.4%
